Measured values taken from patent US20190030018A1 (Celgene Corporation, priority 2017, published 2019).

Tests used:
physchem = format: physicochemical
Source text: “Compound 1, Form C” or “Form C” or “API”” in the Examples herein refers to polymorph Form C of 2-(4-chlorophenyl)-N-((2-(2,6-dioxopiperidin-3-yl)-1-oxoisoindolin-5-yl)methyl)-2,2-difluoroacetamide. “Compound 1, Form A” or “Form A” in the Examples herein refers to polymorph Form A of 2-(4-chlorophenyl)-N-((2-(2,6-dioxopiperidin-3-yl)-1-oxoisoindolin-5-yl)methyl)-2,2-difluoroacetamide.

[1] = test system: GSPT1, Mcl-1, Bcl-2, cleaved caspase 3 in KG-1 cells; test: KG-1 western blots, 16 h; format: cell-based
Method: KG-1 cells were seeded in 6 well tissue culture plates at 500,000 cells per mL, 4 mL per well. […] Cells were then washed twice with cold PBS and lysed with M-PER lysis buffer (Thermo) supplemented with 150 mM NaCl and Halt protease and phosphatase inhibitor cocktail (Thermo) on ice for 30 min. Crude lysates were clarified by centrifugation (14000 rpm, 10 min, 4° C.) and total protein quantified by BCA assay. GSPT1 (Abcam, ab49878), Mcl-1 (CST, 4572), Bcl-2 (CST, 4223), cleaved caspase 3 (CST, 9664), and GAPDH (Santa Cruz, sc-47724) levels were probed by western and imaged on a LiCor infrared imager.

BMMCs from MDS patients = test: Ex vivo liquid culture of BMMCs from MDS patients, Compound 1 with everolimus (viable cell count); format: cell-based, human
Method: Cultures were maintained for 1 week and cell numbers were measured by viable cell count on days 1, 3 and 7 of culture.

In the case of `O=C1CCC(N2Cc3cc(CNC(=O)C(F)(F)c4ccc(Cl)cc4)ccc3C2=O)C(=O)N1` (centres unmarked) [Compound 1, 2-(4-chlorophenyl)-N-((2-(2,6-dioxopiperidin-3-yl)-1-oxoisoindolin-5-yl)methyl)-2,2-difluoroacetamide], the Hygroscopicity (physchem) is reported as “Not hygroscopic”, the “Solid State Stability” value (physchem) is reported as “DS is physically stable under all storage conditions” and the “chemical stability in solution” value (physchem; pH 5) is reported as “chemically instable in solution above pH 5”. The solubility (physchem; water) was no more than 1 µg/mL, the Mcl-1 levels [1] was “reduce levels of Mcl-1” and the “effect of single agent” value (BMMCs from MDS patients; 37 nM) was “No effect”. The “reduction of cell numbers” value (BMMCs from MDS patients; 37 nM, after 3 days of culture) was roughly 70% and the cell number decrease (BMMCs from MDS patients; higher concentrations) was “up to 95%”.
